The values that follow come from ChEMBL document CHEMBL6134835, “Rezatapopt (PC14586): A First-in-Class Small Molecule p53 Y220C Mutant Protein Stabilizer in Clinical Trials” (J Med Chem, 2025).

Data set [1] concerns Cellular tumor antigen p53 (Homo sapiens), P04637 [Y220C]. The data set can be described thus: Reactivation of N-terminal 6xHis-tagged recombinant p53 Y220C mutant (94 to 292 residues) (unknown origin) protein assessed as stabilization of Protein/DNA complex measuring substrate concentration required to increase DNA binding incubated for 48 mins by TR-FRET assay.
In data set [2] the test system is NUGC-3. The data set can be described thus: Antitumor activity against human NUGC-3 cells xenografted in female Balb/c nude mouse assessed as tumor growth inhibition at 50 mg/kg, po relative to control. Type of data set: functional. The settings on record: read-out: TGI. In general terms: In xenograft studies the graft and the host belong to different species.
A short description of data set [3]: AUC (0 to last) in C57BL/6 mouse at 50 mg/kg, po measured for 24 hrs by LC-MS/MS analysis. Type of data set: ADME, organism-based. The settings on record: in vivo.
The nature of data set [4]: Cmax in C57BL/6 mouse at 50 mg/kg, po measured for 24 hrs by LC-MS/MS analysis. The settings on record: in vivo. Type of data set: ADME, organism-based.
Data set [5] has as its system NUGC-3. Kind of data set: Antitumor activity against human NUGC-3 cells xenografted in female Balb/c nude mouse assessed as tumor growth inhibition at 25 mg/kg, po relative to control. The settings on record: read-out: TGI. Type of data set: functional.

SMILES strings stand for the structures.

Regarding `CCN(CC)C1CCN(Cc2cc(C#CCNc3ccccc3)cc(I)c2O)CC1`, in data set [1], the EC1.5 is 1.6 µM.

`CCn1c(C#CCNc2ccccc2)cc2cc(CNC)ccc21`: the EC1.5 in data set [1] is 13.6 µM.

On to `CCn1c2ccccc2c2cc(CNC)ccc21`, for which the EC1.5 in data set [1] came to 37.2 µM.

For `CN1CCC(Nc2cccc3c2cc(C#CCNc2ccc(C(C)(C)C#N)nc2)n3CC(F)(F)F)CC1`, in data set [1], the EC1.5 turned out to be 0.054 µM.

For `CNC(=O)c1ccc(NCC#Cc2cc3c(N[C@@H]4CCN(C)C[C@@H]4F)cccc3n2CC(F)(F)F)c(OC)c1` [REZATAPOPT], the inhibition in vivo at 50 mg/kg in the data set on NUGC-3 [2] came out at 71%. Besides, the AUC(0-t) – broadly, exposure summed from dosing to a finite time, without extrapolation to infinity – at 24 h in data set [3] was determined as 163 µg·h/mL. Further, the EC1.5 in data set [1] worked out at 0.009 µM. Besides, the Cmax (usually the highest concentration seen after dosing) in data set [4] came to 16600 ng/mL. For the same molecule, in the data set on NUGC-3 [5], the inhibition in vivo at 25 mg/kg was 33%.
